Measured values as given in patent US10233200B2, “Organomodified monosilyl compound, its preparation and applications thereof” (Momentive Performance Materials Inc., priority 2017, dated 2019).

What was measured:
canola leaf = test: Uptake of [C14]-2,4-D DMA salt into canola leaf; format: in vivo; settings: no adjuvant compound (0 % wt/vol), 2,4-D alone
Description: The uptake of [C^14]-2,4-dichlorophenoxyacetic acid, dimethylamine salt (2,4-D DMA salt) (1% a.e./100 L/ha) was determined in canola at 2 HAT and 24 HAT (Hours After Treatment) according to the method described by Lui, in Pro. 18th Asian-Pacific Weed Sci. Soc. Conf., pp. 561-566. Liu, Z Q; 2001.

[1] = Spreading of a 10 μL droplet of surfactant solution on polystyrene Petri dishes; format: physicochemical; settings: 10 μL droplet on polystyrene, after 30 seconds, 22 to 25° C., RH 50-70%
Description: Spreading was determined by applying a 10 μL droplet, of surfactant solution to polystyrene Petri dishes (Fisher Scientific) and measuring the spread diameter (mm) after 30 seconds, at a relative humidity between 50 and 70% (at 22 to 25° C.). The solution was applied with an automatic pipette to provide droplets of reproducible volume. Deionized water that was further purified with a Millipore filtration system was used to prepare the surfactant solutions.

| Spread Diameter ([1]; 0.05 weight % compound) | Spread Diameter ([1]; 0.1 weight % compound) | Spread Diameter ([1]; 0.2 weight % compound) | Compound | Uptake % (2 HAT) (canola leaf; 2 HAT) | Uptake % (24 HAT) (canola leaf; 24 HAT) |
| --- | --- | --- | --- | --- | --- |
| – | – | – | CNC.O=C(O)COc1ccc(Cl)cc1Cl [2,4-D alone, 2,4-dichlorophenoxyacetic acid, dimethylamine salt] | 12.1e % | 70.2 a % |
| 10 mm | 21 mm | 33 mm | (H3C)3CCH2CH2—Si(CH3)2—CH2CH2CH2—O—CH2CH(OH)CH2N^+(CH3)2—CH2CH2CH2OH [Ex. 8, (H3C)3CCH2CH2—Si(CH3)2—CH2CH2CH2—O—CH2CH(OH)CH2N^+(CH3)2—CH2CH2CH2OH [(CH2OH)2(CH3)C—COO^−]] | – | – |
